These results are taken from ChEMBL document CHEMBL2074556, “Possible involvement of P-glycoprotein in the biliary excretion of grepafloxacin” (Clin Exp Pharmacol Physiol, 2002).

Data set [1] addresses T1, ATP-dependent translocase ABCB1 (Mus musculus, UniProt P21447). Nature of the data set: TP_TRANSPORTER: increase in Doxorubicin intracellular accumulation (Doxorubicin: 5 uM, GPFX: 500 uM) in P388/ADR cells. It counts as functional, cell-based.
The target of data set [2] is Multidrug resistance protein 1a (Rattus norvegicus) (UniProt Q6PSM0). The data set can be described thus: TP_TRANSPORTER: […] in biliary excretion by Doxorubicin, Cyclosporin A and Erythromycin in vivo Wistar rat. It counts as functional, organism-based. The conditions noted are these: Bile.
The target of data set [3] is T1, ATP-dependent translocase ABCB1. The data set can be described thus: TP_TRANSPORTER: increase in Doxorubicin intracellular accumulation (Doxorubicin: 5 uM, Norfloxacin: 500 uM) in P388/ADR cells. It counts as functional, cell-based.
The target is the same in data set [4]. Nature of the data set: TP_TRANSPORTER: increase in Doxorubicin intracellular accumulation (Doxorubicin: 5 uM, SPFX: 500 uM) in P388/ADR cells. The class given is functional, cell-based.
Data set [5] shares this target. Nature of the data set: TP_TRANSPORTER: increase in Doxorubicin intracellular accumulation (Doxorubicin: 5 uM, Tosufloxacin: 500 uM) in P388/ADR cells. It counts as functional, cell-based.

T1 sequence (P21447 whole entry): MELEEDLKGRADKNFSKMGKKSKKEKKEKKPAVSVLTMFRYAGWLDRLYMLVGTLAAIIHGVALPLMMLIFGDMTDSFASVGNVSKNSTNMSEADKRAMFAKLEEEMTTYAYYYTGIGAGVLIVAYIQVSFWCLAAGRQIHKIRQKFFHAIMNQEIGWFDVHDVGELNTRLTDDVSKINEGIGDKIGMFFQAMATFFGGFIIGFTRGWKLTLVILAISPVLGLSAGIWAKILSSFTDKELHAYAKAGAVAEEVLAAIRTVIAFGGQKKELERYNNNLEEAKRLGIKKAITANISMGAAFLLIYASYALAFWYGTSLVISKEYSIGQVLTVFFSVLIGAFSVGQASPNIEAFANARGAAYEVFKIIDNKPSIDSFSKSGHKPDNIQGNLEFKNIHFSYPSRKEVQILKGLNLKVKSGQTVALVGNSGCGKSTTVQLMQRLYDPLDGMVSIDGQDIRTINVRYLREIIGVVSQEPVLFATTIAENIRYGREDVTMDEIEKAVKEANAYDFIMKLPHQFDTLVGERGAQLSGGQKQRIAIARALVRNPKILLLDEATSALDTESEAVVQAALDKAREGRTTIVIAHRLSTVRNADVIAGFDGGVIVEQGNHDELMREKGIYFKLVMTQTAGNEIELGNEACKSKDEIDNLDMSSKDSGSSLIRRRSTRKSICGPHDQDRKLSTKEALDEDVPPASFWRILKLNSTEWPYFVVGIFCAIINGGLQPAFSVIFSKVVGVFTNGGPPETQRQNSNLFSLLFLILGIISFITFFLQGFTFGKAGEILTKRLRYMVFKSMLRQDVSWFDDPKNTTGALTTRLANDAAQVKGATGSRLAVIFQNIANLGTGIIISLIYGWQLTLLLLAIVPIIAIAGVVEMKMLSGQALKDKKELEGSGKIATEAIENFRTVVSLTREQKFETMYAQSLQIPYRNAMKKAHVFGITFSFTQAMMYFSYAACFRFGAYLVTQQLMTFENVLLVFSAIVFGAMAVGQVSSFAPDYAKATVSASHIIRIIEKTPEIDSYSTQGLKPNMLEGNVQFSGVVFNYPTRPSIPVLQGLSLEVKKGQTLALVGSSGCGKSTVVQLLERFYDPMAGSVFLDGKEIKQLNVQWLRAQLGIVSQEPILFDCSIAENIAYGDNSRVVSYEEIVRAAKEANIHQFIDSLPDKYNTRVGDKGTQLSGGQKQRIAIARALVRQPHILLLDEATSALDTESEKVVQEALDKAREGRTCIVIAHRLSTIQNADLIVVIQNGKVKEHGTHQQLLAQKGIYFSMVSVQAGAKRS
Multidrug resistance protein 1a (Rattus norvegicus), sequence (Q6PSM0 as listed by the source): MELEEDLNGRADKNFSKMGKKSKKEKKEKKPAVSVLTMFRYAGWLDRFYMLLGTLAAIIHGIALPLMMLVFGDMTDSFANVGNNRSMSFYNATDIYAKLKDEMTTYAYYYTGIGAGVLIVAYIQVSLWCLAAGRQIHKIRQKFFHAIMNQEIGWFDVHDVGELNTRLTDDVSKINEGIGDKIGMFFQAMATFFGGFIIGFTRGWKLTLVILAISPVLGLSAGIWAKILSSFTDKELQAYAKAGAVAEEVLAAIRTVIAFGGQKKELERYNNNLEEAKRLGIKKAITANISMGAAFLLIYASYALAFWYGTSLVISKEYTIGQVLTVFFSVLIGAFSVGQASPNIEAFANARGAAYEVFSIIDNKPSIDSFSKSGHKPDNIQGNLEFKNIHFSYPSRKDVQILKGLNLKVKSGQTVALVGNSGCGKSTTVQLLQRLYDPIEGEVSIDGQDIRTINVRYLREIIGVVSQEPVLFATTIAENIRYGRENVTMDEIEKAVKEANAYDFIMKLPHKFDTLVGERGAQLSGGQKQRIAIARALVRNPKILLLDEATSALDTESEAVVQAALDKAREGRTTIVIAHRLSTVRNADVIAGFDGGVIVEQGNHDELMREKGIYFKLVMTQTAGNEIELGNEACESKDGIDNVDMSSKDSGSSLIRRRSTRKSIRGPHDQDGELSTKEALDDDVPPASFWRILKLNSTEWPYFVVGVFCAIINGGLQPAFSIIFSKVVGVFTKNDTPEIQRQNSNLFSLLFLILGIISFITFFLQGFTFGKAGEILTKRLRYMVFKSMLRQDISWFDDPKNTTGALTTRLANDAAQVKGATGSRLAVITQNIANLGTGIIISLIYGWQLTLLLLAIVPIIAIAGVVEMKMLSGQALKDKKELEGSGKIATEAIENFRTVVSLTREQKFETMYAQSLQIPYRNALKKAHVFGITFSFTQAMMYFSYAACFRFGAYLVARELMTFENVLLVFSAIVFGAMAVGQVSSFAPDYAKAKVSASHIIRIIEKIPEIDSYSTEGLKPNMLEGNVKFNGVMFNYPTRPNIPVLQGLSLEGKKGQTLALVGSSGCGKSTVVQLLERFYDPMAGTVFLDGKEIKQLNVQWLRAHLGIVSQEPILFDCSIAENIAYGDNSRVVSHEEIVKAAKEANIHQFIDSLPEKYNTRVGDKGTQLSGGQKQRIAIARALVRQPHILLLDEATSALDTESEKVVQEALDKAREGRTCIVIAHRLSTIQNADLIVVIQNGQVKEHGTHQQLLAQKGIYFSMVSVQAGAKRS

On to `Cc1c(F)c(N2CCNC(C)C2)cc2c1c(=O)c(C(=O)O)cn2C1CC1` (stereo not given) [GREPAFLOXACIN], for which the Activity entry in data set [1] is “inhibitor [(at a rough estimate) 140 % of control]”; in data set [2] it was “substrate [+]”.

In the case of `CCn1cc(C(=O)O)c(=O)c2cc(F)c(N3CCNCC3)cc21` [NORFLOXACIN], the Activity entry in data set [3] was “inhibitor [(at a rough estimate) 290 % of control]”.

Regarding `C[C@@H]1CN(c2c(F)c(N)c3c(=O)c(C(=O)O)cn(C4CC4)c3c2F)C[C@H](C)N1` [SPARFLOXACIN], in data set [4], the Activity entry was “inhibitor [(at a rough estimate) 140 % of control]”. For the compound `NC1CCN(c2nc3c(cc2F)c(=O)c(C(=O)O)cn3-c2ccc(F)cc2F)C1` (stereo not given) [TOSUFLOXACIN], in data set [5], the Activity entry was “inhibitor [(at a rough estimate) 200 % of control]”.
